One assay concerns Enterococcus faecalis. The assay is described as follows: microbe, parasite or virus in culture. Format: functional. Particulars: ATCC 51299.
In the next assay the test system is Escherichia coli. Description: Antibacterial activity against Escherichia coli ATCC 25922 by XTT assay. It counts as functional. (Tetrazolium assays rely on reduction of a dye to a coloured formazan, in cell work by metabolically active cells.)
Assay [1] relates to Staphylococcus aureus. The assay is described as follows: Antibacterial activity against methicillin-resistant Staphylococcus aureus ATCC 43300 by XTT assay.
The test system of assay [2] is Staphylococcus aureus. The assay is described as follows: Antibacterial activity against methicillin-resistant Staphylococcus aureus ATCC 33591 by XTT assay.
In the next assay the test system is Enterococcus faecium. The assay is described as follows: Antibacterial activity against vancomycin-susceptible Enterococcus faecium ATCC 35667 by XTT assay.
The subject of assay [3] is Staphylococcus aureus. Description: Antibacterial activity against methicillin-susceptible Staphylococcus aureus ATCC 25923 by XTT assay.
For assay [4], the system named is Staphylococcus aureus. The assay is described as follows: Antibacterial activity against methicillin-susceptible Staphylococcus aureus ATCC 29213 by XTT assay.

Molecules are shown by their SMILES. Converted amounts (≈) assume the structure as drawn.

Description for Enterococcus faecalis: Antibacterial activity against vancomycin-susceptible Enterococcus faecalis ATCC 51299 by XTT assay

For the compound `Cc1cccc(O)c1C1=CC2=CC(=O)[C@](C)(O)C(=O)C2=CO1`, the MIC against Enterococcus faecalis, with Escherichia coli, against Staphylococcus aureus [1], in the assay on Staphylococcus aureus [2], with Enterococcus faecium and in the assay with Staphylococcus aureus [3] was over 50 µg/mL throughout. Also, the MIC with Staphylococcus aureus [4] is over 50 µg/mL.

On to `CCCCCCC(C)/C=C(\C)C(=O)O[C@@]1(C)C(=O)C2=COC(C3=C(C)CC(O)CC3=O)=CC2=C(Cl)C1=O` (stereo partly specified), for which the MIC is 12.5 µg/mL (≈ 23.5 µM) against Enterococcus faecalis; over 50 µg/mL against Escherichia coli; 6.25 µg/mL (≈ 11.8 µM) in the assay on Staphylococcus aureus [1]; 6.25 µg/mL (≈ 11.8 µM) in the assay on Staphylococcus aureus [2]; 12.5 µg/mL (≈ 23.5 µM) against Enterococcus faecium; 12.5 µg/mL (≈ 23.5 µM) in the assay with Staphylococcus aureus [3]. In addition, the MIC in the assay with Staphylococcus aureus [4] came to 6.25 µg/mL (≈ 11.8 µM).

Turning to `Cc1cccc(O)c1C1=CC2=C(Cl)C(=O)[C@@](C)(O)C(=O)C2=CO1`, the MIC against Enterococcus faecalis was 50 µg/mL (≈ 150 µM); against Escherichia coli it was over 50 µg/mL; in the assay on Staphylococcus aureus [1], over 50 µg/mL; in the assay with Staphylococcus aureus [2], 50 µg/mL (≈ 150 µM); against Enterococcus faecium, 50 µg/mL (≈ 150 µM); with Staphylococcus aureus [3], 25 µg/mL (≈ 75.1 µM). The compound further yielded an MIC in the assay with Staphylococcus aureus [4] of over 50 µg/mL.

For the compound `CCCCCCC(C)/C=C(\C)C(=O)O[C@@]1(C)C(=O)C=C2C=C(C3=C(C)C[C@@H](O)CC3=O)OC=C2C1=O` (stereo partly specified), the MIC against Enterococcus faecalis, in the assay with Escherichia coli, with Staphylococcus aureus [1], in the assay on Staphylococcus aureus [2], against Enterococcus faecium and against Staphylococcus aureus [3] was over 50 µg/mL in each case. For the same compound, the MIC against Staphylococcus aureus [4] is over 50 µg/mL.

As for `CCCCCCC(C)/C=C(\C)C(=O)O[C@@]1(C)C(=O)C=C2C=C(c3c(C)cccc3O)OC=C2C1=O` (stereo partly specified), the MIC is 3.13 µg/mL (≈ 6.54 µM) with Enterococcus faecalis; over 50 µg/mL in the assay with Escherichia coli; 3.13 µg/mL (≈ 6.54 µM) with Staphylococcus aureus [1]; 3.13 µg/mL (≈ 6.54 µM) in the assay with Staphylococcus aureus [2]; 3.13 µg/mL (≈ 6.54 µM) in the assay on Enterococcus faecium; 3.13 µg/mL (≈ 6.54 µM) in the assay on Staphylococcus aureus [3]. Besides, the MIC in the assay on Staphylococcus aureus [4] came to 3.13 µg/mL (≈ 6.54 µM).

In the case of `CCCCCCC(C)/C=C(\C)C(=O)O[C@@]1(C)C(=O)C2=COC(c3c(C)cccc3O)=CC2=C(Cl)C1=O` (stereo partly specified), the MIC with Enterococcus faecalis was 6.25 µg/mL (≈ 12.2 µM); against Escherichia coli it was over 50 µg/mL; in the assay with Staphylococcus aureus [1] it was 6.25 µg/mL (≈ 12.2 µM); in the assay with Staphylococcus aureus [2], 6.25 µg/mL (≈ 12.2 µM); against Enterococcus faecium, 12.5 µg/mL (≈ 24.4 µM); in the assay with Staphylococcus aureus [3] it was 12.5 µg/mL (≈ 24.4 µM). This compound also gave an MIC in the assay with Staphylococcus aureus [4] of 3.13 µg/mL (≈ 6.1 µM).

`Cc1onc(-c2ccccc2)c1C(=O)N[C@@H]1C(=O)N2[C@@H]1SC(C)(C)[C@@H]2C(=O)[O-].[Na+]`: the MIC was 50 µg/mL against Enterococcus faecalis; over 100 µg/mL in the assay with Escherichia coli; over 100 µg/mL against Staphylococcus aureus [1]; over 100 µg/mL in the assay on Staphylococcus aureus [2]; over 100 µg/mL against Enterococcus faecium; 0.78 µg/mL with Staphylococcus aureus [3]. The MIC with Staphylococcus aureus [4] came to 3.13 µg/mL.

Turning to `CN[C@H](CC(C)C)C(=O)N[C@H]1C(=O)N[C@@H](CC(N)=O)C(=O)N[C@H]2C(=O)N[C@H]3C(=O)N[C@H](C(=O)N[C@H](C(=O)O)c4cc(O)cc(O)c4-c4cc3ccc4O)[C@H](O)c3ccc(c(Cl)c3)Oc3cc2cc(c3O[C@@H]2O[C@H](CO)[C@@H](O)[C@H](O)[C@H]2O[C@H]2C[C@](C)(N)[C@H](O)[C@H](C)O2)Oc2ccc(cc2Cl)[C@H]1O.Cl` [VANCOMYCIN HYDROCHLORIDE], the MIC in the assay on Enterococcus faecalis is 6.25 µg/mL; in the assay with Escherichia coli it was over 100 µg/mL; in the assay on Staphylococcus aureus [1] it was 0.39 µg/mL; in the assay on Staphylococcus aureus [2], 0.78 µg/mL; against Enterococcus faecium, 0.39 µg/mL; with Staphylococcus aureus [3], 1.56 µg/mL. Also, the MIC against Staphylococcus aureus [4] is 0.39 µg/mL.

The values above are taken from ChEMBL document CHEMBL4177529, “Penicilones A-D, Anti-MRSA Azaphilones from the Marine-Derived Fungus Penicillium janthinellum HK1-6” (2017).
